Data as given in US20260184702A1, “SYNTHESIS, PHARMACOLOGY AND USE OF NEW WATER-SOLUBLE AND SELECTIVE FMS-LIKE TYROSINE KINASE3 (FLT3) INHIBITORS” (Universität Regensburg, priority 2022, published 2026).
Converted amounts (≈) assume the structure as drawn. Like-named read-outs stand apart in the source and are kept apart here.

What was measured:
human FLT3-ITD = biological target: T1, human FLT3-ITD (Homo sapiens, UniProt P36888); test: Enzymatic kinase assay FLT3 (ITD), 10-dose IC50 mode (Reaction Biology); type: biochemical
T1 sequence (P36888 1-993): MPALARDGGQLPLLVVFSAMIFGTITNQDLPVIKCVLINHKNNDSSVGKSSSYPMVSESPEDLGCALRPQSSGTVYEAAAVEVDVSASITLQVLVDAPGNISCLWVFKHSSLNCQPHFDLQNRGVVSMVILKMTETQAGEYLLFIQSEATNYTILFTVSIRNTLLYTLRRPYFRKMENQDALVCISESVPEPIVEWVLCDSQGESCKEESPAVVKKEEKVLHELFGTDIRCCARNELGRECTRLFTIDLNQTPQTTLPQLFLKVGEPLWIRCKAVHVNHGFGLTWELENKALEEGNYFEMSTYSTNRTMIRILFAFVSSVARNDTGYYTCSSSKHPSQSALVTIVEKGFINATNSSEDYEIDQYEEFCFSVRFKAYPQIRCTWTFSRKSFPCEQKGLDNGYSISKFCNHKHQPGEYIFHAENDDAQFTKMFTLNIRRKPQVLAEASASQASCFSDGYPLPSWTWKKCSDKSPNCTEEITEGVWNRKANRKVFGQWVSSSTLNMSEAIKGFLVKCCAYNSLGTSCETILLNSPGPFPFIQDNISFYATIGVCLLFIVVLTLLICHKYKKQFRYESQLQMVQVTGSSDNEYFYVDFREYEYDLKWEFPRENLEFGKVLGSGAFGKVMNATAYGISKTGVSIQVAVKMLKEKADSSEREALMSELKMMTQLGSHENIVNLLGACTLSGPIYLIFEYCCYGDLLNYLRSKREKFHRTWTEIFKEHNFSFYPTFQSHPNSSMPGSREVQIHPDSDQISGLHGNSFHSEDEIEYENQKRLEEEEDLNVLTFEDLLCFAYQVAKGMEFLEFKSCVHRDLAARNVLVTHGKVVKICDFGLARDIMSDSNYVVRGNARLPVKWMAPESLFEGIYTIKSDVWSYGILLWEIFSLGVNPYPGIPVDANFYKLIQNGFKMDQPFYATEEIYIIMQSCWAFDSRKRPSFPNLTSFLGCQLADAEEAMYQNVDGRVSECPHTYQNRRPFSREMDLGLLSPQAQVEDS

[1] = tested on: MV4-11 cells (FLT3-ITD positive); test: Cell Titer-Glo proliferation assay with MV4-11 cells; type: cell-based; conditions: Homo sapiens, MV4-11, 72 h
Experimental: MV4-11 cells are human acute myeloid leukemia cell lines that carry a FLT3-ITD mutation (American Type Culture Collection, ATCC, Manassas, VA, United States). Cells were cultured in IMDM medium plus 100 μg/mL penicillin, 100 μg/mL streptomycin and 10% FBS. All cells were kept at 37° C., 5% CO2.
Cell proliferation was assessed with Cell Titer-Glo® Viability Assay (Promega; Madison, WI, United States) according to the manufacturer's instructions.

[2] = Solubility test by UV-Vis spectroscopy of saturated solutions; type: physicochemical; conditions: saturated solution; for solubility: thermodynamic from solid
Experimental: All UV-Vis measurements were carried out with an Agilent Cary 60 UV-Vis 2.00 between 800-200 nm. The absorbance was measured with a scan rate of 300.0 nm/min, a data interval of 0.50 nm and an UV-Vis Average Time of 0.10 s. For all measurements a cuvette with 10 mm light path was used. A calibration curve was plotted from several different concentrations and the solubility of the respective compound was determined by measuring the absorbance of a diluted saturated solution. As a blank curve a mixture of ultrapure water and ethanol in a ratio of 1:1 or 5:95 was recorded. For the calibration curve a 100 μM or a 10 μM solution of the compound in an ultrapure water:ethanol (1:1) or (5:95)-mixture was prepared and diluted to obtain at least 6 concentrations. […] The supernatant was taken using a syringe and filtered through a syringe filter (RC Membrane). The saturated solution was diluted with ultrapure water and ethanol to obtain an appropriate concentration in a water:ethanol (1:1) or (5:95)-mixture. The long wave absorbance maximum was used for determination of the solubility (mean values, determination in triplicate). […] By plotting the concentration of the solution against the absorbance values at the previously determined wavelength maximum a calibration curve was obtained (FIG. 1B).

[3] = biological target: T2, recombinant human FLT3 (D835Y) (Homo sapiens, UniProt P36888, D835Y); test: Enzymatic kinase assay FLT3 (D835Y), 10-dose IC50 mode (Reaction Biology); type: biochemical; conditions: 10 μM ATP
T2 construct: purchased Reaction Biology
T2 sequence (P36888 27-993 D835Y): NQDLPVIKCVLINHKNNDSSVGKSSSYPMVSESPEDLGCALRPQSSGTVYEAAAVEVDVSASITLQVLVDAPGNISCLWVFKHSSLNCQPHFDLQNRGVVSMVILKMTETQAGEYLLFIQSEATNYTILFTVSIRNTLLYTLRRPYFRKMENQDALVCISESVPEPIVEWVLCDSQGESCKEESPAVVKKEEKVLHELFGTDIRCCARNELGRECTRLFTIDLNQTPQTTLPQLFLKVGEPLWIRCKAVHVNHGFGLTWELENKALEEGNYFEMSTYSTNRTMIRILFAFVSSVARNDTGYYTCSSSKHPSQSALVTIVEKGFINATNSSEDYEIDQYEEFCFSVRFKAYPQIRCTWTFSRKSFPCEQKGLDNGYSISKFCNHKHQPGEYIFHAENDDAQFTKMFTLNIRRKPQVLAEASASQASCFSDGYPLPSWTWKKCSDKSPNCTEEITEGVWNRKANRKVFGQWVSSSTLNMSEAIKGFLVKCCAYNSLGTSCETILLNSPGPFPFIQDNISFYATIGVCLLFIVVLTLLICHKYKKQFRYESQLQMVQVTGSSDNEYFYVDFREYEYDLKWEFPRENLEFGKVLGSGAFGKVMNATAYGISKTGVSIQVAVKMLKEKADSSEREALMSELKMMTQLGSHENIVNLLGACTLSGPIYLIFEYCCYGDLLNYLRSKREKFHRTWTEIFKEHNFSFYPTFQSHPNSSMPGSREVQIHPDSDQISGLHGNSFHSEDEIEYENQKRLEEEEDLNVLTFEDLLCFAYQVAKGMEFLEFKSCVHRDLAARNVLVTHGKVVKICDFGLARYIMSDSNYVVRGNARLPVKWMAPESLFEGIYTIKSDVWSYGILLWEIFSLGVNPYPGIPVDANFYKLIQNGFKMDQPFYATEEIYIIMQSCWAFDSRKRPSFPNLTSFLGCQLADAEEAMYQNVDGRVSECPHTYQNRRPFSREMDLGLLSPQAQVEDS

[4] = Solubility test by UV-Vis spectroscopy of saturated solutions; type: physicochemical; conditions: solvent DMSO
[5] = 10 μM ATP; read-out: IC50 FLT3 (ITD)
[6] = ethanol, organic solvent or mixture, ethanol, read-out: Solubility Ethanol
[7] = ultrapure water, water, ultrapure water, read-out: Solubility Water

Structure (SMILES)	IC50 (human FLT3-ITD; [5]) [nM]	IC50 ([1]; read-out: IC50 MV4-11 cells) [nM]	solubility [2, 6] [µg/mL]	solubility [2, 7] [µg/mL]	IC50 ([3]; read-out: IC50 FLT3 (D835Y)) [nM]	Solubility DMSO [4]	Solubility Ethanol ([2]; ethanol) [g/L]	IC50 (human FLT3-ITD; read-out: IC50 FLT3 (ITD); 10 μM ATP; bis(2,2,2-trifluoroacetate)) [nM]	IC50 ([1]; read-out: IC50 MV4-11 cells [nM]) [nM]	IC50 ([3]; IC50 FLT3 (D835Y) [nM]) [nM]	IC50 (human FLT3-ITD; read-out: IC50 FLT3 (ITD); 10 μM ATP) [nM]	Solubility Water ([2]; ultrapure water) [g/L]
C/C=C/C(=O)N1CCN(Cc2c(O)ccc3[nH]c(C(=O)c4cc5cc(NC(=O)Nc6cc(C(C)(C)C)on6)ccc5o4)cc23)CC1 [Compound 57a, 1-(2-(4-((4-(But-2-enoyl)piperazin-1-yl)methyl)-5-hydroxy-1H-indole-2-carbonyl)benzofuran-5-yl)-3-(5-(tert-butyl)isoxazole-3-yl)urea]	4.36	0.24										
CC(C)(C)c1cc(NC(=O)Nc2ccc3oc(C(=O)c4cc5c(CN6CCNCC6)c(O)ccc5[nH]4)cc3c2)no1 [Compound 55b, 1-(5-(tert-Butyl)isoxazol-3-yl)-3-(2-(5-hydroxy-4-(piperazin-1-ylmethyl)-1H-indole-2-carbonyl)benzofuran-5-yl)urea bis(2,2,2-trifluoroacetate)]	3.36	0.42	1140 (≈ 2050 µM)	< 100	9.55	Soluble						
CCN1CCN(Cc2c(O)ccc3[nH]c(C(=O)c4cc5cc(NC(=O)Nc6cc(C(C)(C)C)on6)ccc5o4)cc23)CC1 [Compound 69a, 1-(5-(tert-Butyl)isoxazol-3-yl)-3-(2-(4-((4-ethylpiperazin-1-yl)methyl)-5-hydroxy-1H-indole-2-carbonyl)benzofuran-5-yl)urea]	1.28	0.13		< 100	4.23	Soluble	0.97 (≈ 1660 µM)					
CC(C)(C)c1cc(NC(=O)Nc2ccc3oc(C(=O)c4cc5c(CN6CCOCC6)c(OC(=O)N6CCC(N7CCCCC7)CC6)ccc5[nH]4)cc3c2)no1 [Compound 38b, 2-(5-(3-(5-(tert-Butyl)isoxazol-3-yl)ureido)benzofuran-2-carbonyl)-4-(morpholinomethyl)-1H-indol-5-yl[1,4′-bipiperidine]-1′-carboxylate bis(2,2,2-trifluoroacetate)]								1.29	0.38	6.63		
CN1CCN(Cc2c(OC(=O)N3CCC(N4CCCCC4)CC3)ccc3[nH]c(C(=O)c4cc5cc(NC(=O)Nc6cc(C(C)(C)C)on6)ccc5o4)cc23)CC1 [Compound 41a, 2-(5-(3-(5-(tert-Butyl)isoxazol-3-yl)ureido)benzofuran-2-carbonyl)-4-((4-methylpiperazin-1-yl)methyl)-1H-indol-5-yl [1,4′-bipiperidine]-1′-carboxylate]										2.46	0.7	
C=CC(=O)N1CCN(Cc2c(O)ccc3[nH]c(C(=O)c4cc5cc(NC(=O)Nc6cc(C(C)(C)C)on6)ccc5o4)cc23)CC1 [Compound 56b, 1-(2-(4-((4-Acryloylpiperazin-1-yl)methyl)-5-hydroxy-1H-indole-2-carbonyl)benzofuran-5-yl)-3-(5-(tert-butyl)isoxazole-3-yl)urea 2,2,2-trifluoroacetate]	1.47	0.17	2540 (≈ 4160 µM)	220 (≈ 360 µM)	10.8	Soluble						
CC(C)N1CCN(Cc2c(O)ccc3[nH]c(C(=O)c4cc5cc(NC(=O)Nc6cc(C(C)(C)C)on6)ccc5o4)cc23)CC1 [Compound 70a, 1-(5-(tert-Butyl)isoxazol-3-yl)-3-(2-(5-hydroxy-4-((4-isopropylpiperazin-1-yl)methyl)-1H-indole-2-carbonyl)benzofuran-5-yl)urea]	1.98	0.31	920 (≈ 1540 µM)		2.6	Soluble						<0.1
CN1CCN(Cc2c(O)ccc3[nH]c(C(=O)c4cc5cc(NC(=O)Nc6cc(C(C)(C)C)on6)ccc5o4)cc23)CC1 [Compound 33a, 1-(5-(tert-Butyl)isoxazol-3-yl)-3-(2-(5-hydroxy-4-((4-methylpiperazin-1-yl)methyl)-1H-indole-2-carbonyl)benzofuran-5-yl)urea]	0.81		4670 (≈ 8180 µM)	< 100	3.83	Soluble						
